Measurements published in the METLIN SMRT retention time set (Domingo-Almenara et al. 2019).

Assay: gradient 5% acetonitrile 3 min, to 50% in 2 min, to 85% in 15 min, held 3 min, 100 µL/min
Settings: column: Zorbax Extend-C18 2.1 x 50 mm; eluents: water / acetonitrile, 0.1% formic acid
Summary of the method: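 Pure standards were run in mixtures of ~100 molecules by HPLC coupled to a quadrupole time-of-flight mass spectrometer. The column was a Zorbax Extend-C18 (2.1 × 50 mm, 1.8 μm) at 100 μL/min, with water and acetonitrile each containing 0.1% formic acid, in positive and negative ionization mode. Dead and dwell volumes were 40 μL and 900 μL. Retention time was taken from computationally picked adduct peaks, each manually inspected, with data collected over 3 months.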

CC(=O)Nc1cccc2c(C(=O)N3CCN(c4ccccc4Cl)CC3)ccnc12
RP-LC retention time: 946 s

CN1CCCN(C(=O)CN2CCCc3nc(C4CC4)ncc3C2=O)CC1
RP-LC retention time: 570 s

COc1ccc(CNC(=O)C2CCCN(c3nnc4ccc(C(F)(F)F)cn34)C2)cc1 (centres undefined)
RP-LC retention time: 783 s

CC1=C(c2ccc(C)cc2)S(=O)(=O)N=C1N1CCC(NC(=O)C2CCC2)CC1
RP-LC retention time: 805 s

O=C(Nc1ccc(Br)cc1F)C1CCN(C(=O)c2cccn2-c2cccnc2)CC1
RP-LC retention time: 782 s

CCOc1ccccc1-c1noc(Cn2c(=O)n(CC)c(=O)c3ccccc32)n1
RP-LC retention time: 983 s

CCOc1ccc(NC(=O)N2CCC(c3cc(N)on3)CC2)cc1
RP-LC retention time: 690 s

Cc1ccccc1Nc1c(-c2ccccc2)nc2cccc(C)n12
RP-LC retention time: 750 s

O=c1c2cc(-c3ccc(F)cc3)nn2ccn1CC(O)c1ccc(F)cc1 (centres undefined)
RP-LC retention time: 859 s

CCn1c(=O)n(CC(=O)NCCN2CCC(C)CC2)c(=O)c2cnc(-c3ccc(Cl)cc3)nc21
RP-LC retention time: 776 s

CCC(C)(C)N=C(NC#N)Nc1cccnc1
RP-LC retention time: 689 s

CCOc1ccc(-c2nc(-c3cccc(-c4ccn[nH]4)c3)no2)cc1OCC
RP-LC retention time: 1080 s

CCOc1ccc(C(=O)N2CCC3(CC2)NC(=O)c2cc(F)ccc2N3CC)cc1
RP-LC retention time: 836 s

O=C(CCNc1c(-c2ccc(F)cc2)nc2cnccn12)NCc1ccc2c(c1)OCO2
RP-LC retention time: 716 s

N#Cc1ccccc1NC(=O)COc1ccc(Cl)cc1Cl
RP-LC retention time: 719 s

Cc1ccc(-c2cc(C(=O)O)c3ccccc3n2)c(C)c1
RP-LC retention time: 821 s

Cn1nc(C(=O)N2CCCC(C(=O)NC3CC3)C2)c2c1CCN(C(=O)CCc1ccccc1)C2 (centres undefined)
RP-LC retention time: 671 s

CCc1nn2c(CNC(=O)c3ccc(C(C)C)cc3)c(-c3ccccc3)nc2s1
RP-LC retention time: 1080 s

CN(Cc1ccccc1)C(=O)CSc1nnc(-c2ccc(Cl)cc2)o1
RP-LC retention time: 1030 s

COc1ccc(Cl)cc1S(=O)(=O)N1CCC(C(=O)Nc2ccccc2F)CC1
RP-LC retention time: 921 s

O=C(Nc1ccc(OCC(=O)N2CCN(c3ccccn3)CC2)nc1)C1CC1
RP-LC retention time: 580 s

O=C(Nc1nnc(SCc2nnc(-c3ccc4c(c3)OCO4)o2)s1)C1CC1
RP-LC retention time: 750 s

CCN1C=C(C(=O)OCc2cc(F)cc(F)c2)C(C)=NS1(=O)=O
RP-LC retention time: 926 s

Cn1c(=O)c2cc(C(=O)Nc3ccc(F)cc3)cnc2n(-c2ccc(F)cc2)c1=O
RP-LC retention time: 960 s

CCCNC(=O)CC1=C2CCCCC2N(C)C1=O (centres undefined)
RP-LC retention time: 638 s

COc1ccc(NS(=O)(=O)c2cc3n(c2)CCN(C)C3=O)cc1Cl
RP-LC retention time: 696 s

Cc1ccn2c(Nc3ccc4c(c3)OCCO4)c(-c3ccc(N4CCOCC4)cc3)nc2c1
RP-LC retention time: 680 s

c1ccc2c(N3CCOCC3)nnc(N3CCCC3)c2c1
RP-LC retention time: 574 s

CCc1noc(C2(NC(=O)c3cccc(Cl)c3)CCCCC2)n1
RP-LC retention time: 1030 s

COC(=O)c1nnc2c(-c3ccccc3OC)c(C)nn2c1C
RP-LC retention time: 869 s

Cc1nnc(-c2ccc3ccn(CC(=O)Nc4ccc(F)cc4)c3c2)o1
RP-LC retention time: 795 s

O=C(NCc1ccccc1C(F)(F)F)c1cnc(-c2ccccc2)nc1-c1ccncc1
RP-LC retention time: 924 s

C=CCN1C(=O)COc2ccc(-c3nc(NC(=O)c4ccccc4)sc3C)cc21
RP-LC retention time: 1040 s

Cc1cc(=O)n(CC(=O)N2CCN(c3ccc(-c4ccccn4)nn3)CC2)cn1
RP-LC retention time: 531 s

CCn1c(=O)c2ccn(CC(=O)Nc3cc(C)cc(C)c3)c2n(CC)c1=O
RP-LC retention time: 792 s

Cc1cccc(Cn2c(=O)n(CCNC(=O)CC(C)(C)C)c3ncccc32)c1
RP-LC retention time: 864 s

Cc1ccc(S(=O)(=O)Nc2n[nH]nc2C(N)=O)cc1
RP-LC retention time: 603 s

CC(C)CN1CCN(C(=O)C2CCCN(c3nnc4ccc(C(F)(F)F)cn34)C2)CC1 (centres undefined)
RP-LC retention time: 614 s

CC1OC2(CS1)CN1CCC2CC1 (centres undefined)
RP-LC retention time: 619 s

O=C(Cn1c2ccccc2c2ncn(Cc3nc(C4CC4)no3)c(=O)c21)Nc1ccc2c(c1)OCO2
RP-LC retention time: 823 s

COc1ccc(NC(=O)C2CCCN(c3nc4ccccc4nc3C(F)(F)F)C2)cc1OC (centres undefined)
RP-LC retention time: 1060 s

Cc1ccc(C)c(-c2csc(Cc3nc(-c4ccc5c(c4)OCO5)no3)n2)c1
RP-LC retention time: 1260 s

Cc1ncc2c(n1)CCN(C(=O)c1c(F)cccc1Cl)C2
RP-LC retention time: 663 s

O=C(NCCCN1CCCC1=O)C1CCN(c2ncnc3c2oc2ccccc23)CC1
RP-LC retention time: 602 s
